Source: ChEMBL document CHEMBL4196191, “Lowering Lipophilicity by Adding Carbon: One-Carbon Bridges of Morpholines and Piperazines” (J Med Chem, 2018)

Columns and labels:
[1] = Intrinsic clearance in rat hepatocytes assessed per million cells; type: ADME, cell-based, Hepatocyte; details: read-out: CLH
[2] = Distribution coefficient, log D of the compound in buffer/octanol solution by shake-flask method; type: physicochemical
[3] = target: Voltage-gated inwardly rectifying potassium channel KCNH2 (Homo sapiens, UniProt Q12809); assay: Inhibition of human ERG
Sequence of Voltage-gated inwardly rectifying potassium channel KCNH2 (Q12809 whole entry): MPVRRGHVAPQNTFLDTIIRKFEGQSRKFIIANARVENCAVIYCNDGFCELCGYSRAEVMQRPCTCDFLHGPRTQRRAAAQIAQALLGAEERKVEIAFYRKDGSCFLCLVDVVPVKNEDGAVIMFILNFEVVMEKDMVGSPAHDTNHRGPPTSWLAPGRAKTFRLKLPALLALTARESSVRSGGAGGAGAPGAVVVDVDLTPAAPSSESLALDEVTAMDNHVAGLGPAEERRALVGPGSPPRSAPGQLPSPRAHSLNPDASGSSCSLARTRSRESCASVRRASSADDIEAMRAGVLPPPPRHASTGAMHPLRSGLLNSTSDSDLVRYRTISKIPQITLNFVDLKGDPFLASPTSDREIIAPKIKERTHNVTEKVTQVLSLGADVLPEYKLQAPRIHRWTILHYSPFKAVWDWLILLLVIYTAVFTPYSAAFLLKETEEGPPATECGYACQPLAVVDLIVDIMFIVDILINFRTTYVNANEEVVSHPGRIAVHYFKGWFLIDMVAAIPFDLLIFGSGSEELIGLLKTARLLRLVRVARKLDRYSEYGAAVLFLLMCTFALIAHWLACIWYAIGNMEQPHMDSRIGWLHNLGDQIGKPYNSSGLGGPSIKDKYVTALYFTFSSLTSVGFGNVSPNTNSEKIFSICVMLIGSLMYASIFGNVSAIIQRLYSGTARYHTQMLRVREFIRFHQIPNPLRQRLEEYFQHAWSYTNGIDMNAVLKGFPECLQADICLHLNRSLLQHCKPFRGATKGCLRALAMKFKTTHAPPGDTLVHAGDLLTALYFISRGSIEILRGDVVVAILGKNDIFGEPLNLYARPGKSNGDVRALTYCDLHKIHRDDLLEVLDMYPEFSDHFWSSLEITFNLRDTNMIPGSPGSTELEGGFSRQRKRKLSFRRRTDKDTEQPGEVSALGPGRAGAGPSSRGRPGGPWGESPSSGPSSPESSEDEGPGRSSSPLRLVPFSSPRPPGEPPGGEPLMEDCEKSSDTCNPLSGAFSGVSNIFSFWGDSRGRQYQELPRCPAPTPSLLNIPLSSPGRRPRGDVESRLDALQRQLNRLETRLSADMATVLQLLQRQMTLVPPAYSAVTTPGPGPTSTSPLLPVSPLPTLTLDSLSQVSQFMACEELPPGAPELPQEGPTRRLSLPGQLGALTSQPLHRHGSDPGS

[4] = Intrinsic permeability in human Caco2 cells; type: ADME, cell-based; details: Caco-2
[5] = Dissociation constant, pKa of the compound (morpholine); type: physicochemical

Work on `Cc1c[nH]c2ncnc(O[C@H]3CC[C@H](N4CCO[C@H](C)C4)CC3)c12` yielded a hepatocyte CLint [1] of 210 µL/min/1e6 cells, a logD [2] of 3.1 and an IC50 [3] greater than 39.8 µM. The Papp [4] was 27 ×10⁻⁶ cm/s.

`Cc1c[nH]c2ncnc(O[C@H]3CC[C@H](N4C[C@H]5C[C@@H]4CO5)CC3)c12` gave a hepatocyte CLint [1] of 110 µL/min/1e6 cells, a logD [2] of 1.8 and a pKa [5] of 8.1. The IC50 [3] was greater than 39.8 µM and the Papp [4] was 25 ×10⁻⁶ cm/s.

Work on `Cc1c[nH]c2ncnc(O[C@H]3CC[C@H](N4C[C@@H]5C[C@H]4CO5)CC3)c12` yielded a hepatocyte CLint [1] of 36 µL/min/1e6 cells, a logD [2] of 2 and an IC50 [3] greater than 39.8 µM. It also gave a Papp [4] of 29 ×10⁻⁶ cm/s.

In the case of `Cc1c[nH]c2ncnc(O[C@H]3CC[C@H](N4CCOCC4)CC3)c12`, the hepatocyte CLint [1] is reported as 180 µL/min/1e6 cells, the logD [2] is reported as 2.6 and the pKa [5] is reported as 7.5. For the same compound, the IC50 [3] was greater than 39.8 µM and the Papp [4] was 33 ×10⁻⁶ cm/s.

`Cc1c[nH]c2ncnc(O[C@H]3CC[C@H](N4CCO[C@@H](C)C4)CC3)c12` gave a hepatocyte CLint [1] of 140 µL/min/1e6 cells, a logD [2] of 3 and an IC50 [3] of 25.1 µM. For the same compound, the Papp [4] was 31 ×10⁻⁶ cm/s.
